Source: PubChem BioAssay AID1918993 (Molecular Pharmacology Branch, DTP, NCI, 2023)
Where “and” joins values, the source holds several entries; their conditions need not be identical. Equal entries are not always repeated.

Tested on: 233499-124-R-J3-PDC complex spheroid growth
Experiment: Anticancer human tumor 233499-124-R-J3-PDC patient-derived colon adenocarcinoma cell line growth inhibition [AhR]
Settings: for viability, T/C: stronger effect = lower value
Source text: Multicellular complex tumor spheroid response to aryl hydrocarbon receptor antagonists in combination with a variety of drugs and investigational agents in selected tumor cell lines
The current study was undertaken to assess response to aryl hydrocarbon receptor antagonists in combination with standard-of-care drugs and investigational agents in solid tumor complex spheroid models. Complex spheroids include a stromal component modeled by human endothelial cells (HUVEC) and fibroblasts modeled by human mesenchymal stem cells (MSCs). The concentration ranges selected for each drug and investigational agent were based upon clinically achievable concentrations if the clinical Cmax of the agent was known.
Compounds. The drugs and investigational agents: BAY 2416964 (NSC825713), GNF351 (NSC835774), CH-223191 (NSC835775), CPI-455 (NSC825282), aza-TdCyd (NSC777586), decitabine (NSC127716), belinostat (NSC758774), entinostat (NSC756642), pevonedistat (NSC761192), tazemetostat (NSC777109), talazoparib (NSC765396), olaparib (NSC753686), selinexor (NSC780203), nedisertib (M3814, NSC802822), bortezomib (NSC756655), venetoclax (NSC766270), doxorubicin (NSC123127), elimusertib (BAY189344, NSC800525), ceralasertib (AZD6738, NSC777638), TAK-243 (NSC785004), alisertib (NSC759677), etoposide (NSC141540), topotecan (NSC609699), eribulin (NSC707389), gemcitabine (NSC613327), carboplatin (NSC241240), cisplatin (NSC119875), and SN-38 (NSC673596) were obtained from the National Cancer Institute (NCI) Developmental Therapeutics Program Chemical Repository (32). The FDA-approved anticancer drug set is available from the Developmental Therapeutics Program at https://dtp.cancer.gov/organization/dscb/obtaining/available plates.htm. […] The stock solutions were prepared in dimethyl sulfoxide (DMSO, Sigma-Aldrich, St. Louis, MO, cat. D2650), except for the platinum compounds which were prepared in saline (Quality Biological, Gaithersburg, MD, cat. 114-055-101), at 800-fold the tested concentration and stored at -70 degrees C prior to their use. All drugs and investigational agents were tested over a range starting from a high concentration at or near the clinical Cmax and decreasing in half-log increments. If the clinical Cmax for an agent had not been determined, the highest concentration tested was 10 microM (Table 1).
Cell Culture. All cells were maintained in an incubator at 37 degrees C and 5% CO2 with 95% humidity. The PDC lines were cultured according to standard operating procedures established by the NCI PDMR (https://pdmr.cancer.gov). Briefly, all PDCs were thawed and cultured in Matrigel-coated flasks prepared with a working solution of 1X Ham's F-12 nutrient mix, without supplementation (Invitrogen, Waltham, MA, cat. 11765054), 100 U/mL penicillin-streptomycin (Invitrogen, cat. 15140122), and 2.5% Matrigel (Corning Inc., Corning, NY, cat. 354248) for the first three passages. All PDCs were cultured in complete DMEM/F-12 media containing advanced DMEM/F-12 (Invitrogen, cat. 12634028), 4.9% defined fetal bovine serum, heat inactivated (HyClone Laboratories Inc., Logan, UT, cat. SH30070.03HI), 389 ng/mL hydrocortisone (Sigma-Aldrich, cat. H4001), 9.7 ng/mL human EGF recombinant protein (Invitrogen, cat. PHG0313), 23.4 microg/mL adenine (Sigma-Aldrich, cat. A2786), 97.3 U/mL penicillin-streptomycin (Invitrogen, cat. 15140122), 1.9 mM L-glutamine (Invitrogen, cat. 25030081), and 9.7 microM Y-27632 dihydrochloride (Tocris Bioscience, Bristol, United Kingdom, cat. 1254). The PDCs were cultured in complete DMEM/F12 media without 10 microM Y-27632 dihydrochloride for at least two passages prior to the screen. The established cell lines NCI-H1341 and […] were cultured in DMEM/F-12, HEPES (Invitrogen, cat. 11330032), 5% defined fetal bovine serum (HyClone Laboratories Inc., cat. SH30070.03), ITS premix universal culture supplement [insulin (5 microg/mL), transferrin (5 microg/mL), and selenious acid (5 ng/mL)] […]
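Also: spheroids exposed to agents for seven days before reading.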

Row | IC50 (curve of compound) | SMILES | viability, T/C (compound 0.0316 µM) | viability, T/C (compound 0.1 µM) | viability, T/C (compound 0.316 µM) | viability, T/C (compound 1 µM) | viability, T/C (compound 3.16 µM) | viability, T/C (compound 10 µM) | other results
1 | > 10 µM and 5.81 µM | COc1cccc2c1C(=O)c1c(O)c3c(c(O)c1C2=O)CC(O)(C(=O)CO)CC3OC1CC(N)C(O)C(C)O1 (stereo unspecified) | 98% and 91.4% and 90.8% | 85.2% and 85.3% and 89.7% | 90.2% and 92.3% and 93.3% | 97.9% and 97.3% and 87.4% | 66.9% and 78% and 60.5% | 60% and 71.6% and 40.6% | 
2 |  | Cc1ccccc1N=Nc1ccc(NC(=O)c2ccnn2C)c(C)c1 |  | 102% [middle of 20 runs] |  |  |  | 97.8% [middle of 20 runs] | IC50 (compound alone, run of 07/26/2022): > 10 µM
3 |  | Cc1cncc(-c2nc(NCCc3c[nH]c4ccccc34)c3ncn(C(C)C)c3n2)c1 |  | 96.2% [middle of 20 runs] | 86.2% [middle of 19 runs] | 78.4% [middle of 20 runs] |  |  | IC50 (compound alone, run of 07/18/2022): 4.98 µM [middle of 23 runs]
4 | > 0.1 µM | Cn1ncnc1C1c2n[nH]c(=O)c3cc(F)cc(c23)NC1c1ccc(F)cc1 (stereo unspecified) | 92.5% and 107% and 103% | 96.4% and 91.3% and 92.3% |  |  |  |  | viability, T/C (compound 0.000316 µM): 97.9% and 96.7% and 93.9%; viability, T/C (compound 0.001 µM): 108% (2×) and 81%; viability, T/C (compound 0.00316 µM): 108% and 106% and 97.9%; viability, T/C (compound 0.01 µM): 102% and 109% and 99.2%
5 | 0.632 µM and 0.486 µM and 0.266 µM | NS(=O)(=O)OCC1CC(n2ccc3c(NC4CCc5ccccc54)ncnc32)CC1O (stereo unspecified) | 101% (2×) and 105% | 107% and 91.4% and 77.7% | 98.2% and 66% and 47.5% | 18.1% and 25.5% and 14% | 5.89% and 5.66% and 5.16% | 3% and 4.4% and 2.68% | 
6 | 2.78 µM and 5.37 µM and 3.28 µM | Nc1ccccc1NC(=O)c1ccc(CNC(=O)OCc2cccnc2)cc1 | 91.6% and 84.4% and 104% | 97.2% and 106% and 99.6% | 105% and 112% and 109% | 98% and 113% and 100% | 43.9% and 84.1% and 51.4% | 5.82% and 10.2% and 8.69% | 
7 |  | Nc1ccn(C2OC(CO)C(O)C2(F)F)c(=O)n1 (stereo unspecified) | 108% and 76.6% and 99.2% | 91.1% and 89.1% and 80.1% | 75.9% and 48.8% and 61.6% | 51.4% and 43.7% and 46.9% | 45.5% and 50.5% and 62.4% | 54.1% and 54.5% and 59.6% | 
8 | > 1 µM | Nc1ncn(C2CC(O)C(CO)O2)c(=O)n1 (stereo unspecified) | 89.7% and 85.1% and 97% | 94.7% and 85.4% and 97.1% | 92.5% and 90.6% and 99.1% | 86.9% and 92.4% and 92.5% |  |  | viability, T/C (compound 0.00316 µM): 100% and 95.5% and 94.7%; viability, T/C (compound 0.01 µM): 99.2% and 102% and 92.5%
9 | > 0.3 µM | Nc1ncn(C2CC(O)C(CO)S2)c(=O)n1 (stereo unspecified) |  |  |  |  |  |  | viability, T/C (compound 0.000949 µM): 94.5% and 95.6% and 104%; viability, T/C (compound 0.003 µM): 108% and 104% and 118%; viability, T/C (compound 0.00949 µM): 102% and 112% and 110%; viability, T/C (compound 0.03 µM): 107% and 101% and 116%; viability, T/C (compound 0.0949 µM): 103% and 105% and 100%; viability, T/C (compound 0.3 µM): 98.6% and 109% and 104%
10 | 6.32 µM and 6.14 µM and 5.43 µM | O=C(C=Cc1cccc(S(=O)(=O)Nc2ccccc2)c1)NO | 98.2% and 96.2% and 89.6% | 112% and 105% and 102% | 97.2% and 109% and 111% | 115% (2×) and 109% | 95.7% and 101% and 82.7% | 19.4% and 12.2% and 13.2% | 
11 | > 3 µM | O=C(C=Cn1cnc(-c2cc(C(F)(F)F)cc(C(F)(F)F)c2)n1)NNc1cnccn1 |  |  |  |  |  |  | viability, T/C (compound 0.00949 µM): 101% and 111% and 105%; viability, T/C (compound 0.03 µM): 104% and 93.9% and 109%; viability, T/C (compound 0.0949 µM): 105% and 106% and 103%; viability, T/C (compound 0.3 µM): 108% and 96.7% and 90.6%; viability, T/C (compound 0.949 µM): 81.6% and 74.5% and 86%; viability, T/C (compound 3 µM): 60.7% and 70.6% and 74.3%
12 | > 10 µM | O=C(c1cc(Cc2n[nH]c(=O)c3ccccc23)ccc1F)N1CCN(C(=O)C2CC2)CC1 | 103% and 99.9% and 91.7% | 97.6% and 103% and 104% | 97.3% and 100% and 107% | 108% and 113% and 102% | 108% and 92.6% and 99.9% | 93.2% and 85.1% and 76.2% | 
